Read-outs that look alike come from different tables or passages of the source.
Columns and labels:
HepG2 cells [1] = experiment: Oxygen consumption, Seahorse XF24 analyzer; assay type: cell-based, human
rat primary hepatocytes [2] = tested on: rat primary hepatocytes
[3] = tested on: p53 (p53-bla HCT-116 cells); experiment: p53 β-lactamase reporter gene assay; assay type: cell-based, human
rat primary hepatocytes [4] = experiment: MMP assay in rat primary hepatocytes
HepG2 cells [5] = tested on: HepG2 cells
[6] = tested on: Caenorhabditis elegans strain PE255; conditions: in vivo
[7] = biological target: T1, mitochondrial respiratory chain complex II (Rattus norvegicus, UniProt P21913+Q641Z9+Q6PCT8+Q920L2); experiment: Respiratory chain complex II activity; assay type: biochemical; conditions: tested up to 100μM
T1 construct: Submitochondrial particles were prepared by subjecting the intact rat mitochondria, isolated as described above, to three successive freeze–thaw cycles; from tissue; host or cells: rat liver mitochondria (submitochondrial particles)

HepG2 cells [8] = conditions: cited from earlier work
hNSC = experiment: MMP assay in human neural stem cells (hNSC); assay type: cell-based
HepG2 cells [9] = experiment: ROS-Glo hydrogen peroxide (ROS) assay; assay type: cell-based, human
[10] = tested on: Caenorhabditis elegans (Bristol N2); conditions: in vivo
[11] = tested on: mitochondrial respiratory chain complex III; assay type: biochemical, rat
[12] = tested on: mitochondrial respiratory chain complex I; assay type: biochemical, rat; conditions: at 20μM
[13] = tested on: mitochondrial respiratory chain complex IV; assay type: biochemical, rat
[14] = tested on: isolated rat liver mitochondria; experiment: Oxygen consumption, Clark-type oxygen electrode; assay type: biochemical
[15] = tested on: Caenorhabditis elegans (Bristol N2); experiment: C. elegans larval development and growth assay
[16] = tested on: HeLa cells expressing YFP-Parkin; experiment: Parkin translocation assay; assay type: cell-based, human
[17] = tested on: mitochondrial respiratory chain complex V; assay type: biochemical, rat
[18] = tested on: Caenorhabditis elegans strain PE255; experiment: In vivo C. elegans ATP status assay
[19] = tested on: Nrf2/ARE (ARE-bla HepG2 cells); experiment: ARE β-lactamase reporter gene assay; assay type: cell-based, human
HepG2 cells [20] = experiment: Intracellular ATP content (cell viability) assay; assay type: cell-based, human

T1 sequence (Q920L2 35-656): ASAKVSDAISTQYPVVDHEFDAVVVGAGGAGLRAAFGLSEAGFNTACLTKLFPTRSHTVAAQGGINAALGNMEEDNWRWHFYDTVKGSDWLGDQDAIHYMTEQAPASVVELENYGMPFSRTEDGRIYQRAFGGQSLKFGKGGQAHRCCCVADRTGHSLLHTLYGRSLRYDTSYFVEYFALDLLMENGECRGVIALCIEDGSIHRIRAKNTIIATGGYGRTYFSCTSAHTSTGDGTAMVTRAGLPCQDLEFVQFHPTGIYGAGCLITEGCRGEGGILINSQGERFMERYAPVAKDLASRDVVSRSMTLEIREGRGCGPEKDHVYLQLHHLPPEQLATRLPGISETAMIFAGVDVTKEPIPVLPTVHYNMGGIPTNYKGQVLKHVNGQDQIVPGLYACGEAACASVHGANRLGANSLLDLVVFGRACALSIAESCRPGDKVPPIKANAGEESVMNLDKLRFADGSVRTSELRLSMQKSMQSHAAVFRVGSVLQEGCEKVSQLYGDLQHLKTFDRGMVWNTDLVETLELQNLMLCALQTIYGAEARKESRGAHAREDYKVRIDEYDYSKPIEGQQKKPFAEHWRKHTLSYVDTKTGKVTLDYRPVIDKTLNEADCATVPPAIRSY
T1 sequence (P21913 31-282): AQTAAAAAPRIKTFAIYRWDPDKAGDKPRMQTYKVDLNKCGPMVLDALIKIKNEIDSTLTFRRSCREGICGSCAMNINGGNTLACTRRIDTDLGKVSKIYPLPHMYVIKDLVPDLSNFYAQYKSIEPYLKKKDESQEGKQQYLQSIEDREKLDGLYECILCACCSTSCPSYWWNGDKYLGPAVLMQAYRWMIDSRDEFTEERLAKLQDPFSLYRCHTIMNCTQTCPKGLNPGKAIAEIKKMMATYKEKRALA
T1 sequence (Q641Z9 1-169): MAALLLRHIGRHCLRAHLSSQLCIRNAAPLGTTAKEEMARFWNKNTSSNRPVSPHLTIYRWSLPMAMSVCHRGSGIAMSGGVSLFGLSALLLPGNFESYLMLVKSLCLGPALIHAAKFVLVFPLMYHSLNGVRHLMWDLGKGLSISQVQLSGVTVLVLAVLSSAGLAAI
T1 sequence (Q6PCT8 57-159): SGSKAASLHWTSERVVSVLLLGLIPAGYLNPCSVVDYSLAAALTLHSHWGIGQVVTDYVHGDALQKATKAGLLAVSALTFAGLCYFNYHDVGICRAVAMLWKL

With `CO/C=C(/C(=O)OC)c1ccccc1COc1cccc(C(F)(F)F)n1` [Picoxystrobin] the “Activity in oxygen consumption” value (HepG2 cells [1]) was “Inhibitor”, the “MMP assays efficacy (%) Rat Hepatocytes” value (rat primary hepatocytes [2]) was -101+6% and the “Rat hepatocytes (efficacy) (MMP)” value (rat primary hepatocytes [2]) was 16.1±7.03 ( −77.3±9.18 ) %. The EC50 ([3]; 16 h incubation, mean±SD of three experiments) was 6.68 ± 2.21 µM, the “p53 (HCT-116) (efficacy)” value ([3]; % of positive control) was 40.2±19.6% and the IC50 (rat primary hepatocytes [4]; read-out: MMP assays IC50 (µM) Rat Hepatocytes) was 14.6 ± 4.7 µM. The IC50 (rat primary hepatocytes [4]; read-out: Rat hepatocytes IC50 (MMP)) was 16.1 µM, the “HepG2 (efficacy) Galactose (MMP)” value (HepG2 cells [5]) was 24.4±4.56 ( −119±6.45 ) % and the “HepG2 (efficacy) Glucose (MMP)” value (HepG2 cells [5]) was 13.6±14.5 ( −62.9±25.1 ) %. The “MMP assays efficacy (%) HepG2” value (HepG2 cells [5]) was -122%, the IC50 (HepG2 cells [5]; read-out: HepG2 IC50 Galactose (MMP)) was 24.4 µM and the IC50 (HepG2 cells [5]; read-out: HepG2 IC50 Glucose (MMP)) was 13.6 µM. The IC50 (HepG2 cells [5]; read-out: MMP assays IC50 (µM) HepG2) was 1 µM, the “LEC (lowest effect concentration), ATP assay” value [6] was less than 10 µM and the “Complex II % inhibition (activity call)” value [7] was “Inactive”. The “MMP assays efficacy (%) qHTS-HepG2” value (HepG2 cells [8]) was -116±5%, the IC50 (HepG2 cells [8]; read-out: MMP assays IC50 (µM), qHTS-HepG2) was 9.31 ± 2.67 µM and the “hNSC (efficacy) (MMP)” value (hNSC) was 38.2±0.00 ( −92.8±16.3 ) %. For the same molecule, the IC50 (hNSC; read-out: hNSC IC50 (MMP)) was 38.2 µM, the “ROS (HepG2) (efficacy)” value (HepG2 cells [9]) was 15.4±5.47 ( 36.2±2.46 ) % and the EC50 (HepG2 cells [9]; read-out: ROS (HepG2) EC50) was 15.4 µM. The “LEC (lowest effect concentration), larval growth assay” value [10] was less than 10 µM, the “inhibitory effect on Complex III at (concentration)” value [11] was 4 µM and the “Complex III % inhibition” value ([11]; at 4μM) was 53.3±3.26 at 4μM %. The “Complex I % inhibition” value [12] was 13.2±3.23 at 20μM %, the “Complex IV % inhibition (activity call)” value [13] was “Inactive” and the “Potential Mechanism” value [14] was “Inhibitor”. For the same molecule, the “effect on mitochondrial respiration (in words)” value [14] was “effects similar to antimycin A”, the “I-ADP, % of control (O2 consumption rate)” value ([14]; 0.0064 µM) was 94 (43.2) % of control and the “I-sub, % of control (O2 consumption rate)” value ([14]; 0.0064 µM) was 104 (11.7) % of control. For the same molecule, the “II-ADP, % of control (O2 consumption rate)” value (shortened to “II-ADP, % of control”) ([14]; 0.0064 µM) was 81 (61.2) % of control, the “II-sub, % of control (O2 consumption rate)” value (from here on “II-sub, % of control”) ([14]; 0.0064 µM) was 101 (20.8) % of control and the “I-ADP, % of control (O2 consumption rate)” value ([14]; 0.032 µM) was 84 (38.8) % of control. For the same molecule, the “I-sub, % of control (O2 consumption rate)” value ([14]; 0.032 µM) was 103 (11.5) % of control, the “II-ADP, % of control” value ([14]; 0.032 µM) was 36 (27.2) % of control and the “II-sub, % of control” value ([14]; 0.032 µM) was 74 (15.3) % of control. The “I-ADP, % of control (O2 consumption rate)” value ([14]; 0.16 µM) was 50 (22.8) % of control, the “I-sub, % of control (O2 consumption rate)” value ([14]; 0.16 µM) was 90 (10.1) % of control and the “II-ADP, % of control” value ([14]; 0.16 µM) was 11 (7.9) % of control. For the same molecule, the “II-sub, % of control” value ([14]; 0.16 µM) was 41 (8.5) % of control, the “I-ADP, % of control (O2 consumption rate)” value ([14]; 0.8 µM) was 16 (7.2) % of control and the “I-sub, % of control (O2 consumption rate)” value ([14]; 0.8 µM) was 59 (6.6) % of control. The “II-ADP, % of control” value ([14]; 0.8 µM) was 9 (7.1) % of control, the “II-sub, % of control” value ([14]; 0.8 µM) was 33 (6.9) % of control and the “I-ADP, % of control (O2 consumption rate)” value ([14]; 4 µM) was 9 (4.0) % of control. For the same molecule, the “I-sub, % of control (O2 consumption rate)” value ([14]; 4 µM) was 39 (4.4) % of control, the “II-ADP, % of control” value ([14]; 4 µM) was 9 (6.6) % of control and the “II-sub, % of control” value ([14]; 4 µM) was 33 (6.9) % of control. For the same molecule, the “I-ADP, % of control (O2 consumption rate)” value ([14]; 20 µM) was 9 (4.1) % of control, the “I-sub, % of control (O2 consumption rate)” value ([14]; 20 µM) was 34 (3.8) % of control and the “II-ADP, % of control” value ([14]; 20 µM) was 10 (7.4) % of control. For the same molecule, the “II-sub, % of control” value ([14]; 20 µM) was 36 (7.4) % of control, the “I-ADP, % of control (O2 consumption rate)” value ([14]; 100 µM) was 8 (3.7) % of control and the “I-sub, % of control (O2 consumption rate)” value ([14]; 100 µM) was 25 (3.9) % of control. The “II-ADP, % of control” value ([14]; 100 µM) was 7 (4.7) % of control, the “II-sub, % of control” value ([14]; 100 µM) was 16 (4.9) % of control and the “EXT: mean difference in nematode size relative to plate controls” value ([15]; 0.5 µM) was 0.05428. The “EXT: mean difference in nematode size relative to plate controls” value ([15]; 1 µM) was 0.004345, the “EXT: mean difference in nematode size relative to plate controls” value ([15]; 5 µM) was 1.265 and the “EXT: mean difference in nematode size relative to plate controls” value ([15]; 10 µM) was 1.24. The “EXT: mean difference in nematode size relative to plate controls” value ([15]; 25 µM) was 0.112, the “EXT: mean difference in nematode size relative to plate controls” value ([15]; 50 µM) was 0.8304 and the “EXT: mean difference in nematode size relative to plate controls” value ([15]; 75 µM) was 0.6508. The “EXT: mean difference in nematode size relative to plate controls” value ([15]; 100 µM) was 1.291, the “effect on larval growth (in words)” value ([15]; 0.5–100μM) was “inhibited” and the “LEC EXT: lowest effect concentration for extinction, a measure of nematode size” value ([15]; in vivo) was 5 µM. For the same molecule, the Parkin recruitment [16] was “Inactive”, the “Parkin translocation into mitochondria (in words)” value ([16]; 3 h) was “did not induce Parkin translocation” and the “Complex V % inhibition (activity call)” value [17] was “Inactive”. The “LUM: mean difference in luminescence (ATP content) relative to plate controls” value ([18]; 0.5 µM) was -0.02313, the “LUM: mean difference in luminescence (ATP content) relative to plate controls” value ([18]; 1 µM) was -0.1059 and the “LUM: mean difference in luminescence (ATP content) relative to plate controls” value ([18]; 5 µM) was 0.5517. The “LUM: mean difference in luminescence (ATP content) relative to plate controls” value ([18]; 10 µM) was 0.8678, the “LUM: mean difference in luminescence (ATP content) relative to plate controls” value ([18]; 25 µM) was 0.0568 and the “LUM: mean difference in luminescence (ATP content) relative to plate controls” value ([18]; 50 µM) was 0.3665. For the same molecule, the “LUM: mean difference in luminescence (ATP content) relative to plate controls” value ([18]; 75 µM) was 0.468, the “LUM: mean difference in luminescence (ATP content) relative to plate controls” value ([18]; 100 µM) was 0.877 and the “effect on ATP content (in words)” value ([18]; 0.5–100μM) was “inhibited”. The “LEC LUM: lowest effect concentration for luminescence, a measure of nematode ATP content” value ([18]; in vivo) was 5 µM, the EC50 ([19]; 16 h incubation, mean±SD of three experiments, read-out: ARE (HepG2) EC50) was 0.75 ± 0.49 µM and the “ARE (HepG2) (efficacy)” value ([19]; % of positive control) was 57.6±7.85%. The “ATP (HepG2, galactose) (efficacy)” value (HepG2 cells [20]) was 3.08±0.64 ( −76.4±37.7 ) %, the “ATP (HepG2, glucose) (efficacy)” value (HepG2 cells [20]) was 3.61±1.57 ( −76.4±30.3 ) % and the IC50 (HepG2 cells [20]; read-out: ATP (HepG2, galactose) IC50) was 3.08 µM. The IC50 (HepG2 cells [20]; read-out: ATP (HepG2, glucose) IC50) was 3.61 µM.

— article PMC6112376, “Comprehensive Analyses and Prioritization of Tox21 10K Chemicals Affecting Mitochondrial Function by in-Depth Mechanistic Studies” (Environmental Health Perspectives, 2018)
